Where “and” joins values, the source holds several entries; their conditions need not be identical. Equal entries are not always repeated.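 All cell lines were grown in 96-well plates and treated with compound for 48 hours. GI50: concentration for 50% inhibition of growth. TGI is the concentration that stops growth completely.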
Experiments:
Assay in all cases: DTP human tumour cell line panel, 48 h
[1] = test system: SF-539 CNS
[2] = test system: SNB-75 CNS
[3] = test system: UO-31 renal
[4] = test system: SW-620 colon
[5] = test system: LOX IMVI melanoma
[6] = test system: SF-295 CNS
[7] = test system: MALME-3M melanoma
[8] = test system: SK-MEL-5 melanoma
[9] = test system: NCI-H522 lung
[10] = test system: CAKI-1 renal

Row | Structure (SMILES) | TGI [1] | TGI [2] | TGI [3] | TGI [4] | TGI [5] | TGI [6] | TGI [7] | TGI [8] | TGI [9] | TGI [10] | GI50 [1] | GI50 [2] | GI50 [3] | GI50 [4] | GI50 [5] | GI50 [6] | GI50 [7] | GI50 [8] | GI50 [9] | GI50 [10]
1 | O=[N+]([O-])c1ccc(CS(=O)Cc2ccccc2)cc1 (stereo unspecified) | > 100 µM | > 100 µM | > 100 µM | > 100 µM | > 100 µM | > 100 µM | > 100 µM | > 100 µM | > 100 µM | > 100 µM | – | – | – | – | – | – | – | – | – | –
2 | Cc1c2ccncc2c(C)c2c1[nH]c1ccc(OC(C)(C)C)cc12 | 2.93 µM | 3.73 µM | 4.3 µM | 5.1 µM | 7.53 µM | 4.87 µM | 3.31 µM | 4.9 µM | 5.81 µM | 3.4 µM | – | – | – | – | – | – | – | – | – | –
3 | O=c1[nH]cnc2c(C3OC(CO)C(O)C3O)scc12 (stereo unspecified) | > 100 µM | > 100 µM | > 100 µM | > 100 µM | > 100 µM | > 100 µM | > 100 µM | > 100 µM | > 100 µM | > 100 µM | > 100 µM | > 100 µM | 51.4 µM | 99.9 µM | 43.9 µM | > 100 µM | 13.8 µM | > 100 µM | > 100 µM | 77.9 µM
4 | O=C1c2ccccc2C(=O)C1C(c1ccc([N+](=O)[O-])cc1)C1C(=O)c2ccccc2C1=O | > 100 µM | > 100 µM | > 100 µM | 32.3 µM | 32.5 µM | > 100 µM | > 100 µM | > 100 µM | > 100 µM | 95 µM | – | – | – | – | – | – | – | – | – | –
5 | CN(C)c1ccc(N=Nc2c([O-])ccc3ccccc23)cc1.[C-]#[O+].[C-]#[O+].[Ir] | 25.6 µM | > 100 µM | > 53.2 µM | 25.7 µM | 40.5 µM | > 100 µM | 33.4 µM | > 57.7 µM | 23.5 µM | 33.5 µM | 16.3 µM | 54.8 µM | 26.7 µM | 1.48 µM | 18.6 µM | > 100 µM | 15.7 µM | 24.9 µM | 7.83 µM | 16.2 µM
6 | CCc1c[nH]c2ncnc(N3CC[C@@](N)(CNC(=O)c4ccc(F)cc4F)C3)c12 | > 100 µM | 77.5 µM | > 100 µM | > 100 µM | > 100 µM | > 100 µM | > 91.2 µM | > 100 µM | > 75.7 µM | > 89.8 µM | 20.4 µM | 16.3 µM | 33.7 µM | 31.3 µM | 31.1 µM | 26.2 µM | 33.4 µM | 32.8 µM | 29.6 µM | 18.7 µM
7 | CCc1c2c(nc3cccc(N)c13)-c1cc3c(c(=O)n1C2)COC(=O)[C@]3(O)CC | 0.00491 µM | 16.9 µM | 0.397 µM | > 100 µM | 0.182 µM | – | 2.3 µM and 3.11 µM | – | – | 0.0349 µM | < 0.001 µM | 0.0158 µM | 0.0516 µM | 0.011 µM | 0.00461 µM | 0.00441 µM | 0.0448 µM and 0.011 µM | 0.00329 µM | 0.00459 µM | –
8 | COc1cc2cc(Oc3ccc(NC(=O)c4ccc(Cl)c(C(F)(F)F)c4)cc3)c(C)nc2cc1OC | > 100 µM | > 100 µM | > 100 µM | > 100 µM | > 100 µM | 25.7 µM | 95.1 µM | 27.1 µM | 83.3 µM | 46.2 µM | 41.3 µM | 16.4 µM | 9.82 µM | 33.7 µM | 7.59 µM | 2.28 µM | 28.6 µM | 10.6 µM | 8.78 µM | 4.19 µM
9 | CN(C)C(=O)C1CCC(=C2C(=O)OC(C)(C)OC2=O)N1C (stereo unspecified) | > 100 µM | > 100 µM | > 100 µM | > 100 µM | > 100 µM | > 100 µM | > 100 µM | > 100 µM | > 100 µM | > 100 µM | – | – | – | – | – | – | – | – | – | –
10 | COC(=O)C(=O)C(C(=O)C=C(C)C)C(=O)C(=O)Nc1cccc(C(C)=O)c1 (stereo unspecified) | > 100 µM | > 100 µM | > 100 µM | > 100 µM | > 100 µM | > 100 µM | > 100 µM | > 100 µM | > 100 µM | > 100 µM | – | – | – | – | – | – | – | – | – | –
11 | COc1cc(Oc2c(O)c(C)c(OC)c(C(C)=O)c2O)c(C(C)=O)c(O)c1C | > 100 µM | > 100 µM | > 100 µM | > 100 µM | > 100 µM | > 100 µM | > 100 µM | > 100 µM | 77.9 µM | > 100 µM | – | – | – | – | – | – | – | – | – | –
12 | CC(=O)Oc1ccccc1C(=O)C1c2cccc(O)c2C(=O)c2c(O)cccc21 | 1.94 µM | 4.54 µM | 1.68 µM | 2.26 µM | 4.19 µM | 2.65 µM | 4.01 µM | 2.4 µM | 3.88 µM | 5.39 µM | – | – | – | – | – | – | – | – | – | –
13 | COc1ccc(COCC(Cn2ccnc2)OCc2ccc(C(=O)O)cc2)cc1 (stereo unspecified) | > 100 µM | > 100 µM | > 100 µM | > 100 µM | > 100 µM | > 100 µM | > 100 µM | > 100 µM | > 100 µM | > 100 µM | – | – | – | – | – | – | – | – | – | –
14 | CCOC(=O)c1cnn(-c2ccnc3c(C(F)(F)F)cccc23)c1N | > 100 µM | > 100 µM | > 100 µM | > 100 µM | > 100 µM | > 100 µM | > 100 µM | > 100 µM | > 100 µM | > 100 µM | > 100 µM | 51.7 µM | > 100 µM | > 100 µM | > 100 µM | > 100 µM | > 100 µM | > 100 µM | > 100 µM | > 100 µM
15 | O=c1[nH]cc(OCC(F)(F)F)c(=O)[nH]1 | > 100 µM | > 100 µM | > 100 µM | > 100 µM | > 100 µM | > 100 µM | > 100 µM | > 100 µM | > 100 µM | > 100 µM | – | – | – | – | – | – | – | – | – | –
16 | CN(C)CCNC(=O)c1ccc(Cl)c2c(Nc3ccc(S(N)(=O)=O)cc3)c3ccccc3nc12 | 4.79 µM | 4.72 µM | 11 µM | 2.52 µM | 2.35 µM | 15.3 µM | 12.5 µM | 11.8 µM | 1.94 µM | 17.1 µM | – | – | – | – | – | – | – | – | – | –
17 | CCCCCc1c(C)[nH]c(/C=C2\N=C(c3ccc[nH]3)C=C2Oc2ccc(Cl)cc2)c1C | 0.992 µM and 0.474 µM | 0.553 µM and 0.431 µM | 0.32 µM and 0.222 µM | 2.58 µM and 1.29 µM | 0.046 µM and 0.0473 µM | 0.57 µM and 1.1 µM | 1.6 µM and 1.54 µM | 0.0762 µM and 0.0818 µM | 1.02 µM and 1.28 µM | 0.542 µM and 0.312 µM | 0.125 µM and 0.0406 µM | 0.112 µM and 0.0375 µM | 0.142 µM and 0.0599 µM | 0.0387 µM and 0.0228 µM | 0.0204 µM and < 0.01 µM | 0.17 µM and 0.0832 µM | 0.337 µM and 0.129 µM | 0.027 µM and 0.0234 µM | 0.0455 µM and 0.0305 µM | 0.148 µM and 0.0343 µM

— PubChem BioAssay (NCI)
